Counter-ions that a name gives are not always drawn. Like-named read-outs stand apart in the source and are kept apart here.
Assays:
[1] = cited from earlier work
[2] = Dissolution of estriol in solvents for the organic phase of the organogel; format: physicochemical; settings: propylene glycol alone
Procedure: The ratio of propylene glycol to LIP was 4:10. For the aqueous phase, amitriptyline HCL was dissolved in water, then PLURONIC® F-127 was added to give a 20% PLURONIC® solution. The two phases were mixed using a syringe to syringe transfer method which produce a relatively high shear mixing. The ratio of organic to aqueous phases was 1:2. This produced a stable organogel with final concentrations of 300 mcg/g estriol and 0.5% w/w amitriptyline. Stability may be increased by the addition of potassium sorbate.
To increase the dissolution of the estriol in the organic phase, and thereby improve bioavailability, a combination of solubiliser (diethylene glycol monoethyl ether) and propylene glycol was employed. […] This was then blended with the LIP to produce the organic phase.

| dissolution in propylene glycol [2] | SMILES | solubility in water ([1]; at pH 1.2) | solubility in water ([1]; at pH 6.8) | solubility in water ([1]; water) |
| --- | --- | --- | --- | --- |
|  | CN(C)CCC=C1c2ccccc2CCc2ccccc21 [Amitriptyline HCL] | 1000 mg/mL | 0.9 mg/mL |  |
| did not produce a clear solution | C[C@]12CC[C@@H]3c4ccc(O)cc4CC[C@H]3[C@@H]1C[C@@H](O)[C@@H]2O [Estriol] |  |  | 27 mg per litre |

Source: patent US12521403B2, “Compositions for the treatment of chronic vulval and perineal pain and symptoms and conditions associated therewith” (TA Pharma Pty Limited, priority 2016, dated 2026)
